In ChEMBL document CHEMBL4414672, “Synthesis of certain benzothieno[3,2-d]pyrimidine derivatives as a selective SIRT2 inhibitors” (Eur J Med Chem, 2020):

Tests used:
Type in all cases: functional
[1] = tested on: MDA-MB-435; test: Growth inhibition of human MDA-MB-435 cells at 10^-5 M incubated for 48 hrs by sulforhodamine B assay; conditions: MDA-MB-435, 48 h, read-out: GI
[2] = tested on: SR; test: Growth inhibition of human SR cells at 10^-5 M incubated for 48 hrs by sulforhodamine B assay; conditions: read-out: GI
[3] = tested on: CAKI-1; test: Growth inhibition of human Caki1 cells at 10^-5 M incubated for 48 hrs by sulforhodamine B assay; conditions: CAKI-1, 48 h, read-out: GI
[4] = tested on: OVCAR-5; test: Growth inhibition of human OVCAR5 cells at 10^-5 M incubated for 48 hrs by sulforhodamine B assay; conditions: OVCAR-5, 48 h, read-out: GI
[5] = tested on: T47D; test: Growth inhibition of human T47D cells at 10^-5 M incubated for 48 hrs by sulforhodamine B assay; conditions: read-out: GI
[6] = tested on: BT-549; test: Growth inhibition of human BT549 cells at 10^-5 M incubated for 48 hrs by sulforhodamine B assay; conditions: BT-549, 48 h, read-out: GI
[7] = tested on: SF-295; test: Growth inhibition of human SF295 cells at 10^-5 M incubated for 48 hrs by sulforhodamine B assay; conditions: SF-295, 48 h, read-out: GI
[8] = tested on: HT-29; test: Growth inhibition of human HT-29 cells at 10^-5 M incubated for 48 hrs by sulforhodamine B assay; conditions: HT-29, 48 h, read-out: GI
[9] = tested on: SF-539; test: Growth inhibition of human SF539 cells at 10^-5 M incubated for 48 hrs by sulforhodamine B assay; conditions: SF-539, 48 h, read-out: GI
[10] = tested on: Hs-578T; test: Growth inhibition of human Hs 578T cells at 10^-5 M incubated for 48 hrs by sulforhodamine B assay; conditions: read-out: GI
[11] = tested on: Malme-3M; test: Growth inhibition of human MALME-3M cells at 10^-5 M incubated for 48 hrs by sulforhodamine B assay; conditions: read-out: GI
[12] = tested on: SNB-19; test: Growth inhibition of human SNB19 cells at 10^-5 M incubated for 48 hrs by sulforhodamine B assay; conditions: SNB-19, 48 h, read-out: GI
[13] = tested on: MCF7; test: Growth inhibition of human MCF7 cells at 10^-5 M incubated for 48 hrs by sulforhodamine B assay; conditions: MCF7, 48 h, read-out: GI
[14] = tested on: UACC-257; test: Growth inhibition of human UACC257 cells at 10^-5 M incubated for 48 hrs by sulforhodamine B assay; conditions: UACC-257, 48 h, read-out: GI
[15] = tested on: OVCAR-3; test: Growth inhibition of human OVCAR3 cells at 10^-5 M incubated for 48 hrs by sulforhodamine B assay; conditions: OVCAR-3, 48 h, read-out: GI
[16] = tested on: TK-10; test: Growth inhibition of human TK10 cells at 10^-5 M incubated for 48 hrs by sulforhodamine B assay; conditions: TK-10, 48 h, read-out: GI
[17] = tested on: HCC 2998; test: Growth inhibition of human HCC2998 cells at 10^-5 M incubated for 48 hrs by sulforhodamine B assay; conditions: HCC 2998, 48 h, read-out: GI
[18] = tested on: SN12C; test: Growth inhibition of human SN12C cells at 10^-5 M incubated for 48 hrs by sulforhodamine B assay; conditions: read-out: GI
[19] = tested on: PC-3; test: Growth inhibition of human PC3 cells at 10^-5 M incubated for 48 hrs by sulforhodamine B assay; conditions: PC-3, 48 h, read-out: GI
[20] = tested on: SW-620; test: Growth inhibition of human SW620 cells at 10^-5 M incubated for 48 hrs by sulforhodamine B assay; conditions: SW-620, 48 h, read-out: GI
[21] = tested on: DU-145; test: Growth inhibition of human DU145 cells at 10^-5 M incubated for 48 hrs by sulforhodamine B assay; conditions: DU-145, 48 h, read-out: GI
[22] = tested on: MDA-MB-468; test: Growth inhibition of human MDA-MB-468 cells at 10^-5 M incubated for 48 hrs by sulforhodamine B assay; conditions: MDA-MB-468, 48 h, read-out: GI
[23] = tested on: A549; test: Growth inhibition of human A549/ATCC cells at 10^-5 M incubated for 48 hrs by sulforhodamine B assay; conditions: A549, 48 h, read-out: GI
[24] = tested on: HCT-15; test: Growth inhibition of human HCT15 cells at 10^-5 M incubated for 48 hrs by sulforhodamine B assay; conditions: HCT-15, 48 h, read-out: GI
[25] = tested on: UACC-62; test: Growth inhibition of human UACC62 cells at 10^-5 M incubated for 48 hrs by sulforhodamine B assay; conditions: UACC-62, 48 h, read-out: GI
[26] = tested on: NCI-H226; test: Growth inhibition of human NCI-H226 cells at 10^-5 M incubated for 48 hrs by sulforhodamine B assay; conditions: NCI-H226, 48 h, read-out: GI
[27] = tested on: MOLT-4; test: Growth inhibition of human MOLT4 cells at 10^-5 M incubated for 48 hrs by sulforhodamine B assay; conditions: MOLT-4, 48 h, read-out: GI
[28] = tested on: EKVX; test: Growth inhibition of human EKVX cells at 10^-5 M incubated for 48 hrs by sulforhodamine B assay; conditions: read-out: GI
[29] = tested on: SNB-75; test: Growth inhibition of human SNB75 cells at 10^-5 M incubated for 48 hrs by sulforhodamine B assay; conditions: SNB-75, 48 h, read-out: GI
[30] = tested on: LOX IMVI; test: Growth inhibition of human LOXIMVI cells at 10^-5 M incubated for 48 hrs by sulforhodamine B assay; conditions: read-out: GI
[31] = tested on: NCI-H522; test: Growth inhibition of human NCI-H522 cells at 10^-5 M incubated for 48 hrs by sulforhodamine B assay; conditions: NCI-H522, 48 h, read-out: GI
[32] = tested on: SK-MEL-28; test: Growth inhibition of human SK-MEL-28 cells at 10^-5 M incubated for 48 hrs by sulforhodamine B assay; conditions: SK-MEL-28, 48 h, read-out: GI
[33] = tested on: IGROV-1; test: Growth inhibition of human IGROV1 cells at 10^-5 M incubated for 48 hrs by sulforhodamine B assay; conditions: IGROV-1, 48 h, read-out: GI
[34] = tested on: CCRF-CEM; test: Growth inhibition of human CCRF-CEM cells at 10^-5 M incubated for 48 hrs by sulforhodamine B assay; conditions: read-out: GI
[35] = tested on: A498; test: Growth inhibition of human A498 cells at 10^-5 M incubated for 48 hrs by sulforhodamine B assay; conditions: A498, 48 h, read-out: GI
[36] = tested on: ACHN; test: Growth inhibition of human ACHN cells at 10^-5 M incubated for 48 hrs by sulforhodamine B assay; conditions: read-out: GI
[37] = tested on: OVCAR-4; test: Growth inhibition of human OVCAR4 cells at 10^-5 M incubated for 48 hrs by sulforhodamine B assay; conditions: OVCAR-4, 48 h, read-out: GI
[38] = tested on: NCI-H322M; test: Growth inhibition of human NCI-H322M cells at 10^-5 M incubated for 48 hrs by sulforhodamine B assay; conditions: read-out: GI
[39] = tested on: COLO 205; test: Growth inhibition of human COLO205 cells at 10^-5 M incubated for 48 hrs by sulforhodamine B assay; conditions: COLO 205, 48 h, read-out: GI

Row | SMILES | inhibition of growth at 10 µM [1] [%] | inhibition of growth at 10 µM [2] [%] | inhibition of growth at 10 µM [3] [%] | inhibition of growth at 10 µM [4] [%] | inhibition of growth at 10 µM [5] [%] | inhibition of growth at 10 µM [6] [%] | inhibition of growth at 10 µM [7] [%] | inhibition of growth at 10 µM [8] [%] | inhibition of growth at 10 µM [9] [%] | inhibition of growth at 10 µM [10] [%] | inhibition of growth at 10 µM [11] [%] | inhibition of growth at 10 µM [12] [%] | inhibition of growth at 10 µM [13] [%] | inhibition of growth at 10 µM [14] [%] | inhibition of growth at 10 µM [15] [%] | inhibition of growth at 10 µM [16] [%] | inhibition of growth at 10 µM [17] [%] | inhibition of growth at 10 µM [18] [%] | inhibition of growth at 10 µM [19] [%] | inhibition of growth at 10 µM [20] [%] | other results
1 | Oc1ccccc1C1NC(=S)Nc2c1sc1ccc(Cl)cc21 (stereo not drawn) | -10.2 | 16.3 | 12.9 | 5.8 | 24.8 | -5 | -0.95 | -1.54 | -0.95 | 8.15 | 10.7 | 2.48 | -7.9 | -1.4 | 4.13 | -8.34 | -10.6 | 9.77 | 10.2 | -8 | inhibition of growth at 10 µM [21]: -7.9%; inhibition of growth at 10 µM [22]: 8.75%; inhibition of growth at 10 µM [23]: 5.42%; inhibition of growth at 10 µM [24]: -0.05%; inhibition of growth at 10 µM [25]: 13.1%; inhibition of growth at 10 µM [26]: 21.8%; inhibition of growth at 10 µM [27]: 9.69%; inhibition of growth at 10 µM [28]: 19.7%; inhibition of growth at 10 µM [29]: 21.1%; inhibition of growth at 10 µM [30]: 6.44%; inhibition of growth at 10 µM [31]: 7.8%; inhibition of growth at 10 µM [32]: -6.12%; inhibition of growth at 10 µM [33]: 13.6%; inhibition of growth at 10 µM [34]: -4.86%; inhibition of growth at 10 µM [35]: 23.4%; inhibition of growth at 10 µM [36]: 8.93%; inhibition of growth at 10 µM [37]: 7.52%; inhibition of growth at 10 µM [38]: 5.31%; inhibition of growth at 10 µM [39]: -1.76%
2 | N#Cc1cnn(C2=Nc3c(sc4ccc(Cl)cc34)C(c3cccc([N+](=O)[O-])c3)N2)c1N (stereo not drawn) | -7.15 | -0.62 | -3.28 | 4.37 | 10.1 | -5.52 | -2.52 | -17.9 | 2.87 | 3.32 | -6.04 | -2.52 | 29.9 | -3.69 | -7.11 | 25.1 | -3.42 | -7.06 | 11 | -4.05 | inhibition of growth at 10 µM [21]: -10.5%; inhibition of growth at 10 µM [22]: 3.7%; inhibition of growth at 10 µM [23]: -3.91%; inhibition of growth at 10 µM [24]: -4.58%; inhibition of growth at 10 µM [25]: 7.54%; inhibition of growth at 10 µM [26]: 19.2%; inhibition of growth at 10 µM [27]: 8.24%; inhibition of growth at 10 µM [28]: 20.9%; inhibition of growth at 10 µM [29]: 11.5%; inhibition of growth at 10 µM [30]: 12.5%; inhibition of growth at 10 µM [31]: 4.1%; inhibition of growth at 10 µM [32]: -13.6%; inhibition of growth at 10 µM [33]: 23.1%; inhibition of growth at 10 µM [34]: -11.9%; inhibition of growth at 10 µM [35]: -6.43%; inhibition of growth at 10 µM [36]: 15.2%; inhibition of growth at 10 µM [37]: -1.38%; inhibition of growth at 10 µM [38]: 6.34%; inhibition of growth at 10 µM [39]: -3.42%
